Laboratory results taken from US20160106439A1, “PNEUMATIC TOURNIQUET” (BIONUMERIK PHARMACEUTICALS, INC., priority 2013, published 2016).
Like-named read-outs stand apart in the source and are kept apart here.

How the values were obtained:
IGF1R = IGF1R (Homo sapiens, UniProt P08069); assay: IGF1R kinase assay (ADP-glo) after pre-incubation; assay type: biochemical
Description: Prior to initiating the IGF1R kinase assays, IGF1R was incubated with Tavocept-IGF1R kinase phosphorylated the IGF1Rtide substrate using the ATP cofactor and produced ADP. The assays in half area 96-well microtiter plates were 10 μL in volume and contained IGF1R (4 ng total or 0.4 ng/μL), ATP (100 μM), IGF1Rtide substrate ([…]), and the concentrations of the various test articles as indicated. Additionally, kinase assay buffer was added to achieve a final reaction volume of 10 μL per assay. IGF1R kinase reactions were incubated for 60 minutes at 25° C. in a water bath. Following this 60 minute incubation, reactions were transferred to microplates and the kinase activity was evaluated using the ADP-glo system from Promega (this system monitors ADP produced when IGF1R phosphorylates the IGF1Rtide substrate).

T790M EGFR kinase = T790M EGFR kinase (Homo sapiens, UniProt P00533, T790M); assay: T790M EGFR kinase assay (ADP-glo); assay type: biochemical
bovine TrxR = target: T1, bovine TrxR (Bos taurus, UniProt O62768); assay: NADPH oxidation assay, Reaction A (TrxR alone); assay type: biochemical; details: without Trx, disulfide 0.5 mM
T1 construct: purchased American Diagnostica
Description: See, Luthman M and Holmgren A. Rat liver thioredoxin and thioredoxin reductase: purification and characterization. Biochemistry 21:6628-6633 (1982). A typical assay mixture contained buffer (50 mM potassium phosphate, pH 7.0, 1 mM EDTA), NADPH (200 μM), and bovine TrxR (1.6 μg, 0.138 μM). Assays were run with and without recombinant human Trx (4.8 μM). […] All disulfides were added to reactions as 10x solutions in buffer. The total volume of each reaction was 0.1 mL. Reactions were initiated by the addition of TrxR and were incubated at 25° C. for 40 minutes. Reactions were analyzed using a Molecular Devices SpectraMax Plus UV/vis plate reader and the activity was calculated using a 4 minute linear portion of each assay.

[1] = target: T2, human glutaredoxin (Grx1) (Homo sapiens, UniProt P35754); assay: X-ray crystallography of Grx1 with Tavocept-derived mesna adducts; assay type: binding; details: 40 mM Tavocept
T2 construct: 6xHis (TEV-cleavable) (N, cleaved yes); made in house; host or cells: E. coli BL21 (RIPL)
Description: Diffraction data were collected at the Advanced Light Source (ALS) (Berkeley, Calif.). […] Data was processed using the program package MosFlm as part of the ccp4 program package.
Data was indexed, integrated, scaled and merged using the program Mosflm. […] The solution was consistent with one molecule in the crystal asymmetric unit. […] The structure solution is supported by contiguous electron density for the entire chain trace of each molecule, landmark side chain density features matching the amino acid sequence including cysteines, absence of phi-psi violations and final R/Rfree values in the normal range. […] Residues Gln39 and Glu55 have missing side-chain atoms in the final structures (side chain atoms CD, CG, OE1, NE2 and CD, OE1, OE2, respectively).

recombinant human MET = recombinant human MET (Homo sapiens, UniProt P08581); assay: biochemical
Description: The substrate that was phosphorylated by the kinase, polyglutamate-tyrosine (PolyGT), was purchased from SignalChem (Cat. #P61-58, lot #R098-4).
All other reagents were purchased from Sigma Aldrich. A Tecan Ultra microplate reader with XFluor4 software (Tecan, V4.51) and RdrOle software (Tecan, V4.50) were used in this study.
MET phosphorylated the polyGT substrate using the ATP cofactor and produced ADP. […] For most assays, a stock of ATP (1 mM) and PolyGT (1 mg/mL) was used. […] The reactions, in microplate, were incubated for 60 minutes at 25° C. on a heat block. Following this 60 minute incubation, the kinase activity was evaluated using the ADP-Glo system from Promega that monitored ADP produced when MET phosphorylated the PolyGT substrate.
Kinase assays were run in triplicate or quadruplicate in microplates. Following this, the ADP-Glo detection system (Promega) was used to determine how much ADP had been produced. For 10 μL volume assays, to each microplate well containing 10 μL of kinase reaction was added ADP-Glo reagent (10 μL), plates were spun in a table top centrifuge (1000 rpm (123×g) for 1 minute) to ensure no reagent remained on the well walls, and then agitated for 1 minute to ensure optimal mixing. Plates were incubated at 25 C on a heat block for 40 minutes. Next, kinase detection reagent (20 μL) was added and, as above, centrifugation and agitation were repeated; plates were allowed to incubate at 25° C. on a heat block for 30 minutes. Following the incubation of the kinase detection reagent, plates were read on a Tecan Ultra microplate reader. The Tecan Ultra contained a built-in plate definition file for the whole area 96-well white Corning plates but a plate definition file for the half area 96-well Corning plates was created using the RdrOle component of the Tecan Ultra software.
Kinases vary in their ability to turnover ATP in vitro; therefore, the activity of the MET over a concentration range from 0.78 ng to 20 ng was evaluated in assay volumes of 10 μL. See, FIG. 7.
Therefore, each mole of polymer of 20,000 g/mole would contain approximately 28 moles of the glu-glu-glu-glu-tyr “subpolymer” in a 10 μL assay volume containing 1 μg of the polyGT substrate. […] This was a vast excess of possible tyrosine phosphorylation sites, ensuring that the substrate for phosphorylation was not rate limiting (assuming the higher mass range would produce an even larger excess of glu-glu-glu-glu-tyr “subpolymers”).
Data from MET assays run on the Tecan Ultra microplate spectrophotometer were collected in Microsoft Excel. Error calculations and graphical representations were performed in Microsoft Office Excel (Microsoft Corporation, Redmond, Wash., USA). Determination of IC25 and IC50 values were accomplished using Origin Lab software (OriginLab Corporation, Northampton, Mass., USA).

Chain of recombinant human MET (P08581 956-1390 limits assumed): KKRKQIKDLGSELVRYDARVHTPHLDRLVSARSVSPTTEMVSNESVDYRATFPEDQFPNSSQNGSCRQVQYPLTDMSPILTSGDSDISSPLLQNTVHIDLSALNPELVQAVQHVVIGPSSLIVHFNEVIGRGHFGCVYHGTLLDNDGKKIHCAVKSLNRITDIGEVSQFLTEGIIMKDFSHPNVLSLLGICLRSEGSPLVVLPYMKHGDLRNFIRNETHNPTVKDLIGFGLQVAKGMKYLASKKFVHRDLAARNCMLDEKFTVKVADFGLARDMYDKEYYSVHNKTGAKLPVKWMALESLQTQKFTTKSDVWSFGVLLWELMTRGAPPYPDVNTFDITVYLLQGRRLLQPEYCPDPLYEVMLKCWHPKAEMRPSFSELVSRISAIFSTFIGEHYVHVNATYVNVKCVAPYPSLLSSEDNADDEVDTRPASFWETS
Chain of T790M EGFR kinase (P00533 25-1210 T790M): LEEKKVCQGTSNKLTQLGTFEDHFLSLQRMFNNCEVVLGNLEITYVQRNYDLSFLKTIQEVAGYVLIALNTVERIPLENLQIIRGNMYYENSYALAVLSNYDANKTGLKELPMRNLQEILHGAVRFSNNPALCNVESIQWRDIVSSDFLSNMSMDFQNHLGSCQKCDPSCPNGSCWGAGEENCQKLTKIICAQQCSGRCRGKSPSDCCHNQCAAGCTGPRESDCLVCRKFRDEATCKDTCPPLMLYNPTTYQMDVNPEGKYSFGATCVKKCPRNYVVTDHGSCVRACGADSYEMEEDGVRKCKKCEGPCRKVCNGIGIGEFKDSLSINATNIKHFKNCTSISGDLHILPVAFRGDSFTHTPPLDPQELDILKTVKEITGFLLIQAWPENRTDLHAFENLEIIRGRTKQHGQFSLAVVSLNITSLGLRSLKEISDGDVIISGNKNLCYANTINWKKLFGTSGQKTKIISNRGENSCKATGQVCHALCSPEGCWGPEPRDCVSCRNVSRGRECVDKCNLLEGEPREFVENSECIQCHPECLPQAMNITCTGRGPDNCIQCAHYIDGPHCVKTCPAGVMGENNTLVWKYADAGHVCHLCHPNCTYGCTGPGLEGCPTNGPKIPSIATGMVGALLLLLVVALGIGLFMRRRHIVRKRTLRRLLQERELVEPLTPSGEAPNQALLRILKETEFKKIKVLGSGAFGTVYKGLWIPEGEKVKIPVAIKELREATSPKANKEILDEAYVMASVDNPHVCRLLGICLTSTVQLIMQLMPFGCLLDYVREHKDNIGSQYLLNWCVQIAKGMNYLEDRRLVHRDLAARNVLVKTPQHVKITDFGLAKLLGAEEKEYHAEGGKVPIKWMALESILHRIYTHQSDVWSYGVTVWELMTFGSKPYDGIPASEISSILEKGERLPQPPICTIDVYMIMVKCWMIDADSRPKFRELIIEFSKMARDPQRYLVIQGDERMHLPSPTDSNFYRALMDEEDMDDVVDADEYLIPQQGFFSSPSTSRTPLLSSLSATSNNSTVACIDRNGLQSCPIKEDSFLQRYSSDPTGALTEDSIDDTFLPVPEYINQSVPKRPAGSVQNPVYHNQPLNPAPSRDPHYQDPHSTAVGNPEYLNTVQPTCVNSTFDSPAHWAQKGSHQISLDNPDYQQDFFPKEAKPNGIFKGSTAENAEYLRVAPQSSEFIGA
Chain of IGF1R (P08069 31-1367): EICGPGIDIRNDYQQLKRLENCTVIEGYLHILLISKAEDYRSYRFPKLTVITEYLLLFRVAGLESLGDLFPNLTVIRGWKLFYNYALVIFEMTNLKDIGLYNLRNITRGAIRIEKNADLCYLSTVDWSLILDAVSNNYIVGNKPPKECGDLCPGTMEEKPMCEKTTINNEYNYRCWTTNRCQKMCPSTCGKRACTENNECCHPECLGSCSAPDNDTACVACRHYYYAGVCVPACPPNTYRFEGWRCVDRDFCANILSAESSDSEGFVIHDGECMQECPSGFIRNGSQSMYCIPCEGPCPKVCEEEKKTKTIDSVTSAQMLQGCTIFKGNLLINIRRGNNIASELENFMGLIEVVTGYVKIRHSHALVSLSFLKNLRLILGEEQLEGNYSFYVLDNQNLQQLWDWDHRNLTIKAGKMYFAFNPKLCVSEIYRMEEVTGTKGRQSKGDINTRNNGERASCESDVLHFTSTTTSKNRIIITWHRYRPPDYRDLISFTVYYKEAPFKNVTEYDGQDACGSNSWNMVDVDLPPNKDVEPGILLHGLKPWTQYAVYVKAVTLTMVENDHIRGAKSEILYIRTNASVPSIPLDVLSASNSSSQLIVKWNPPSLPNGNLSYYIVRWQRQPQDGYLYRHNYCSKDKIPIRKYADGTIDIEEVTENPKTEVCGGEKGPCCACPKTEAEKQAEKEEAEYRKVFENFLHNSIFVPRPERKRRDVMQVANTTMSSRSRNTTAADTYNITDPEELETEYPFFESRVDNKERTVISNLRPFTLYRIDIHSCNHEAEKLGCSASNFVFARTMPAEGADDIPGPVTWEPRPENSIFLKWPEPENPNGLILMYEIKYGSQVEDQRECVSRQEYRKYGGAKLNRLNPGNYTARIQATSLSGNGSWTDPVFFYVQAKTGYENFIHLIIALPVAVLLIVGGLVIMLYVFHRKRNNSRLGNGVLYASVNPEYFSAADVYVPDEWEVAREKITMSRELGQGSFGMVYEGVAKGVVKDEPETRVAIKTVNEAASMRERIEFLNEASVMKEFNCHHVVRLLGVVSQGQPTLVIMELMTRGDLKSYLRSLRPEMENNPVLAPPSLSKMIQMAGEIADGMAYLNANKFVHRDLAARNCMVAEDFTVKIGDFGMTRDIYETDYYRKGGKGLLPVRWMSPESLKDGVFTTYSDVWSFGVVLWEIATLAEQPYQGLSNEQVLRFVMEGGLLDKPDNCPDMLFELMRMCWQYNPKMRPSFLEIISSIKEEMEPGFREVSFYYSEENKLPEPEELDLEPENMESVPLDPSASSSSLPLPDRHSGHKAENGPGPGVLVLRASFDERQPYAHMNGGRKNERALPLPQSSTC
T2 sequence (P35754 whole entry): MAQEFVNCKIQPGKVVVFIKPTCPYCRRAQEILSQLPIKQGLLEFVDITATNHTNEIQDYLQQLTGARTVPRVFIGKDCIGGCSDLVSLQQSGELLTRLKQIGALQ
T1 sequence (O62768 whole entry): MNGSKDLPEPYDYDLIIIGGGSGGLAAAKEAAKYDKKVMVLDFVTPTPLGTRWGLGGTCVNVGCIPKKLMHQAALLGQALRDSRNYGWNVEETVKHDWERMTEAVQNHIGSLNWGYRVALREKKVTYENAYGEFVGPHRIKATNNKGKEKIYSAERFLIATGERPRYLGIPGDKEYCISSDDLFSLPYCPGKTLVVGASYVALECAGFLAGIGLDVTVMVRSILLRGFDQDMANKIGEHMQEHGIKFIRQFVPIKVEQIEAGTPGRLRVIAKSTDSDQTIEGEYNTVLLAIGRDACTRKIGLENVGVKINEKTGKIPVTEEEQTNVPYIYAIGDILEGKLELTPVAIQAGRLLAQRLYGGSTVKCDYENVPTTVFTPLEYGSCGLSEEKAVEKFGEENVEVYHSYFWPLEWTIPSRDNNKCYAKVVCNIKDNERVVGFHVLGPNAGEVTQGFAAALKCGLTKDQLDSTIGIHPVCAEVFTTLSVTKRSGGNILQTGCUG

O=S(=O)([O-])CCSSCCS(=O)(=O)[O-].[Na+].[Na+] [Tavocept, disodium 2,2′-dithio-bis-ethane sulfonate]
loss of IGF1R kinase activity (IGF1R; 20 mM Tavocept pre-incubated with IGF1R for 24 hours, 100 μM ATP): approximately 33% | loss of IGF1R kinase activity (IGF1R; other concentrations and pre-incubation times): ≤ 10% | potentiation of Erlotinib inhibition of T790M EGFR kinase (T790M EGFR kinase; 10 μM ATP): strongly potentiated | IC50 (T790M EGFR kinase; 10 μM ATP, read-out: IC50 on T790M EGFR kinase activity): > 40 mM | inhibition of T790M EGFR kinase (T790M EGFR kinase; 10 μM or 100 μM ATP, physiological concentrations (<20 mM)): did not notably inhibit | IC50 (T790M EGFR kinase; 100 μM ATP, read-out: IC50 on T790M EGFR kinase activity): > 40 mM | IC50 (T790M EGFR kinase; read-out: IC50 on T790M EGFR kinase): > 40 mM | Reduction of disulfide by TrxR alone (bovine TrxR): did not detectably reduce | Tavocept-derived mesna adduct sites on Grx [1]: observed on Cys7 and Cys82 | greater inhibition of MET than Staurosporine alone (recombinant human MET; 10 μM ATP, MET 0.1 ng/μL, 5 mM Tavocept + 100 nM Staurosporine): 22% | greater inhibition of MET than Staurosporine alone (recombinant human MET; 10 μM ATP, MET 0.1 ng/μL, 5 mM Tavocept + 300 nM Staurosporine): 8% | greater inhibition of MET than Staurosporine alone (recombinant human MET; 10 μM ATP, MET 0.1 ng/μL, 10 mM Tavocept + 100 nM Staurosporine): 23% | greater inhibition of MET than Staurosporine alone (recombinant human MET; 10 μM ATP, MET 0.1 ng/μL, 10 mM Tavocept + 300 nM Staurosporine): 8% | IC50 (recombinant human MET; IC50, MET 2.5 ng/μL, ATP 100 μM): > 40 mM | IC50 (recombinant human MET; IC50 on MET, 10 μM ATP, 0.1 ng/μL MET): 15.2 ± 0.36 mM | IC50 (recombinant human MET; IC50 on MET, 10 μM ATP, 2.5 ng/μL MET, single experiment): 17.4 mM | IC50 (recombinant human MET; IC50 on MET, 100 μM ATP, 0.1 ng/μL MET, single experiment): 37.1 mM | IC50 (recombinant human MET; IC50 on MET, 100 μM ATP, 2.5 ng/μL MET): > 40 mM | inhibition at 5000 µM (recombinant human MET; read-out: greater inhibition of MET than Crizotinib alone, 10 μM ATP, MET 0.1 ng/μL, 5 mM Tavocept + 20 nM Crizotinib): 10% | inhibition at 5000 µM (recombinant human MET; read-out: greater inhibition of MET than Crizotinib alone, 10 μM ATP, MET 0.1 ng/μL, 5 mM Tavocept + 40 nM Crizotinib): 6% | inhibition at 10000 µM (recombinant human MET; read-out: greater inhibition of MET than Crizotinib alone, 10 μM ATP, MET 0.1 ng/μL, 10 mM Tavocept + 20 nM Crizotinib): 16% | inhibition at 10000 µM (recombinant human MET; read-out: greater inhibition of MET than Crizotinib alone, 10 μM ATP, MET 0.1 ng/μL, 10 mM Tavocept + 40 nM Crizotinib): 11% | inhibition at 5000 µM (recombinant human MET; read-out: greater inhibition of MET than Crizotinib alone, 100 μM ATP, MET 2.5 ng/μL, 5 mM Tavocept + 45 nM Crizotinib): 15% | inhibition at 5000 µM (recombinant human MET; read-out: greater inhibition of MET than Crizotinib alone, 100 μM ATP, MET 2.5 ng/μL, 5 mM Tavocept + 90 nM Crizotinib): 10% | inhibition at 10000 µM (recombinant human MET; read-out: greater inhibition of MET than Crizotinib alone, 100 μM ATP, MET 2.5 ng/μL, 10 mM Tavocept + 45 nM Crizotinib): 14% | inhibition at 10000 µM (recombinant human MET; read-out: greater inhibition of MET than Crizotinib alone, 100 μM ATP, MET 2.5 ng/μL, 10 mM Tavocept + 90 nM Crizotinib): 10% | inhibition at 5000 µM (recombinant human MET; read-out: greater inhibition of MET than Staurosporine alone, 10 μM ATP, MET 0.1 ng/μL, 5 mM Tavocept + 100 nM Staurosporine): 22% | inhibition at 5000 µM (recombinant human MET; read-out: greater inhibition of MET than Staurosporine alone, 10 μM ATP, MET 0.1 ng/μL, 5 mM Tavocept + 300 nM Staurosporine): 8% | inhibition at 10000 µM (recombinant human MET; read-out: greater inhibition of MET than Staurosporine alone, 10 μM ATP, MET 0.1 ng/μL, 10 mM Tavocept + 100 nM Staurosporine): 23% | inhibition at 10000 µM (recombinant human MET; read-out: greater inhibition of MET than Staurosporine alone, 10 μM ATP, MET 0.1 ng/μL, 10 mM Tavocept + 300 nM Staurosporine): 8%
